Assay results taken from PMC7606587 (Nuclear medicine and biology, 2020).
Like-named read-outs stand apart in the source and are kept apart here.

Test system: C4–2B prostate cancer xenografts
Type: in vivo, athymic (BALB/c nu/nu) mice
Settings: for blood clearance (in words): 1 and 4 h pi
[1] = C4–2B xenograft, 4 h pi, tail vein injection
[2] = C4–2B xenograft, time point not stated at the place (study at 1, 4, 24 h pi)

blood clearance (in words) | highest spleen concentration (1 h pi) [%ID/g] | tumor concentration relative to blood concentration (1 h pi) [×] | kidney concentration (4 h pi) | tumor concentration relative to blood concentration (4 h pi) [×] | kidney concentration (4 h pi, listed as 16a) [%ID/g] | tumor concentration (C4–2B xenograft, 1 h pi) | tumor concentration [1] | tumor concentration (C4–2B xenograft, at 1 and 4 h pi) [%ID/g] | tumor concentration [2] | tumor concentration relative to [131I]16a (C4–2B xenograft) | concentration in all the tissues except for the intestine (1 h pi) | intestine concentration (1 h pi) [%ID/g] | tumor uptake / tumor targeting (in words) (C4–2B xenograft) | Substance
rapid blood clearance | 9 | 2.3 | ~ 94 %ID/g | 4.7 | 94 | ~ 4 % ID/g | ~ 4 %ID/g | < 5 | ~ 4 %ID/g |  |  |  |  | 3-B10H9-dioxa-5-LuG-dPEG12-Ph-Lys-Ac [[^131I]16a]
 |  |  |  |  |  |  | ~ 15 %ID/g |  | 14–15 %ID/g | ~ 4 × |  |  |  | 3-B10H9-dioxa-5-LuG-dPEG4-Ph-Lys-Ac [[^131I]16b]
rapid blood clearance |  |  |  |  |  |  |  |  |  |  | lower than 2 % ID/g | 12 | essentially no tumor uptake | 3-B10H9-dioxa-5-dPEG12CO2H-Ph-Lys-Ac [[^125I]9a]
